From US10668040B2, “Treatment of urea cycle disorders in neonates and infants” (Horizon Therapeutics, LLC, priority 2017, dated 2020)

System: UCD patients
Assay: Example 3: TEAEs, serious and non-serious adverse events
Format: in vivo
Text: Sixteen newborn infants aged 0 to 27 days, and 10 infants and toddlers aged 28 days to 23 months received RAVICTI Oral Liquid administered just prior to breastfeeding or intake of formula or food. The recommended dosing regimen was 3-6 times per day depending on feeding schedule.
Number of Subjects with Treatment-Emergent Adverse Events (TEAEs), Serious TEAEs, Deaths, and Discontinuations Due to TEAEs
An adverse event (AE) is any untoward medical occurrence, whether or not the event is considered related to the study drug. A serious AE is any AE that: results in death; is life threatening; requires hospitalization or prolongation of existing hospitalization; results in disability/incapacity; is a congenital anomaly/birth defect; is an important medical event. TEAEs are defined as AEs with an onset date on or after the first dose of study medication until study discontinuation. The Investigator assessed the causal relationship of each TEAE to the study drug as not related, possibly related, or probably related. From the first dose of study treatment through 30 days after the final dose (mean [SD] duration of treatment was 9.13 [6.838] months).

[1] = Non-serious adverse events, Age 0 to <2 Months
[2] = Non-serious adverse events, Age 2 Months to <2 Years
[3] = aged 0 to 2 months, 16 analyzed
[4] = aged 2 months and up to 2 years, 10 analyzed

Compound: O=C(CCCc1ccccc1)OCC(COC(=O)CCCc1ccccc1)OC(=O)CCCc1ccccc1 [RAVICTI, benzenebutanoic acid, 1′,1″-(1,2,3-propanetriyl) ester]
- Irritability, Occurrences (all) [1]: 1
- Lethargy, Occurrences (all) [1]: 1
- Leukocytosis, Occurrences (all) [1]: 1
- Lower respiratory tract infection, Occurrences (all) [1]: 1
- Lymphocytosis, Occurrences (all) [1]: 1
- Medical device site haemorrhage, Occurrences (all) [1]: 1
- Metabolic acidosis, Occurrences (all) [1]: 2
- Microcytic anaemia, Occurrences (all) [1]: 1
- Musculoskeletal and connective tissue Disorders (Torticollis), Occurrences (all) [1]: 1
- Nail ridging, Occurrences (all) [1]: 0
- Nasal congestion, Occurrences (all) [1]: 2
- Nasopharyngitis, Occurrences (all) [1]: 7
- Nephrolithiasis, Occurrences (all) [1]: 1
- Neutropenia, Occurrences (all) [1]: 1
- Ocular hyperaemia, Occurrences (all) [1]: 1
- Oral candidiasis, Occurrences (all) [1]: 2
- Oropharyngeal pain, Occurrences (all) [1]: 2
- Otitis media acute, Occurrences (all) [1]: 1
- Otitis media, Occurrences (all) [1]: 1
- Pharyngitis, Occurrences (all) [1]: 0
- Plagiocephaly, Occurrences (all) [1]: 2
- Platelet count increased, Occurrences (all) [1]: 1
- Pneumonia, Occurrences (all) [1]: 0
- Pneumothorax, Occurrences (all) [1]: 1
- Post-tussive vomiting, Occurrences (all) [1]: 1
- Protein deficiency, Occurrences (all) [1]: 2
- Pyrexia, Occurrences (all) [1]: 3
- Rash, Occurrences (all) [1]: 6
- Red man syndrome, Occurrences (all) [1]: 1
- Respiratory disorder, Occurrences (all) [1]: 0
- Respiratory syncytial virus infection, Occurrences (all) [1]: 1
- Rhinorrhoea, Occurrences (all) [1]: 0
- Rhinovirus infection, Occurrences (all) [1]: 1
- Seborrhoeic dermatitis, Occurrences (all) [1]: 2
- Sinusitis, Occurrences (all) [1]: 1
- Stoma site reaction, Occurrences (all) [1]: 1
- Tachypnoea, Occurrences (all) [1]: 1
- Teething, Occurrences (all) [1]: 3
- Thrombocytopenia, Occurrences (all) [1]: 2
- Thrombocytosis, Occurrences (all) [1]: 2
- Tibia fracture, Occurrences (all) [1]: 0
- Transaminases increased, Occurrences (all) [1]: 1
- Tremor, Occurrences (all) [1]: 1
- Upper respiratory tract infection, Occurrences (all) [1]: 7
- Urinary tract infection, Occurrences (all) [1]: 2
- Use of accessory respiratory muscles, Occurrences (all) [1]: 1
- Vascular disorders (Venous thrombosis limb), Occurrences (all) [1]: 0
- Vesicoureteric reflux, Occurrences (all) [1]: 0
- Viral infection, Occurrences (all) [1]: 1
- Vomiting, Occurrences (all) [1]: 12
- Weight decreased, Occurrences (all) [1]: 1
- Agitation, Occurrences (all) [2]: 0
- Alanine aminotransferase increased, Occurrences (all) [2]: 0
- Amino acid level decreased, Occurrences (all) [2]: 1
- Amino acid level increased, Occurrences (all) [2]: 0
- Ammonia increased, Occurrences (all) [2]: 1
- Anaemia, Occurrences (all) [2]: 1
- Angular cheilitis, Occurrences (all) [2]: 0
- Anion gap increased, Occurrences (all) [2]: 0
- Apnoea, Occurrences (all) [2]: 1
- Arthropod bite, Occurrences (all) [2]: 0
- Aspartate aminotransferase increased, Occurrences (all) [2]: 0
- Blood bicarbonate decreased, Occurrences (all) [2]: 0
- Blood urea decreased, Occurrences (all) [2]: 0
- Body height below normal, Occurrences (all) [2]: 0
- Candida infection, Occurrences (all) [2]: 0
- Carbon dioxide decreased, Occurrences (all) [2]: 1
- Cardiac disorders (Tachycardia), Occurrences (all) [2]: 0
- Catheter site rash, Occurrences (all) [2]: 0
- Conjunctivitis, Occurrences (all) [2]: 1
- Constipation, Occurrences (all) [2]: 2
- Cough, Occurrences (all) [2]: 2
- Croup infectious, Occurrences (all) [2]: 1
- Dacryostenosis congenital, Occurrences (all) [2]: 1
- Decreased appetite, Occurrences (all) [2]: 0
- Dehydration, Occurrences (all) [2]: 0
- Dermatitis diaper, Occurrences (all) [2]: 1
- Device occlusion, Occurrences (all) [2]: 0
- Diarrhoea, Occurrences (all) [2]: 1
- Drug withdrawal syndrome, Occurrences (all) [2]: 0
- Dysphagia, Occurrences (all) [2]: 0
- Ear and labyrinth disorders (Excessive cerumen production), Occurrences (all) [2]: 1
- Ear infection, Occurrences (all) [2]: 0
- Eczema, Occurrences (all) [2]: 1
- Eye discharge, Occurrences (all) [2]: 0
- Feeding disorder of infancy or early childhood, Occurrences (all) [2]: 0
- Flatulence, Occurrences (all) [2]: 0
- Gamma-glutamyltransferase increased, Occurrences (all) [2]: 0
- Gastroenteritis, Occurrences (all) [2]: 2
- Gastrointestinal viral infection, Occurrences (all) [2]: 0
- Gastrooesophageal reflux disease, Occurrences (all) [2]: 0
- Gross motor delay, Occurrences (all) [2]: 1
- Hepatic enzyme increased, Occurrences (all) [2]: 0
- Hepatobiliary disorders (Hepatic calcification), Occurrences (all) [2]: 0
- Hyperammonaemia, Occurrences (all) [2]: 0
- Hypophagia, Occurrences (all) [2]: 3
- Immune System Disorders (Seasonal allergy), Occurrences (all) [2]: 1
- Irritability, Occurrences (all) [2]: 0
- Lethargy, Occurrences (all) [2]: 0
- Leukocytosis, Occurrences (all) [2]: 0
- Lower respiratory tract infection, Occurrences (all) [2]: 0
- Lymphocytosis, Occurrences (all) [2]: 0
- Medical device site haemorrhage, Occurrences (all) [2]: 0
- Metabolic acidosis, Occurrences (all) [2]: 2
- Microcytic anaemia, Occurrences (all) [2]: 0
- Musculoskeletal and connective tissue Disorders (Torticollis), Occurrences (all) [2]: 0
- Nail ridging, Occurrences (all) [2]: 1
- Nasal congestion, Occurrences (all) [2]: 1
- Nasopharyngitis, Occurrences (all) [2]: 2
- Nephrolithiasis, Occurrences (all) [2]: 0
- Neutropenia, Occurrences (all) [2]: 0
- Ocular hyperaemia, Occurrences (all) [2]: 0
- Oral candidiasis, Occurrences (all) [2]: 0
- Oropharyngeal pain, Occurrences (all) [2]: 0
- Otitis media acute, Occurrences (all) [2]: 0
- Otitis media, Occurrences (all) [2]: 2
- Pharyngitis, Occurrences (all) [2]: 1
- Plagiocephaly, Occurrences (all) [2]: 0
- Platelet count increased, Occurrences (all) [2]: 0
- Pneumonia, Occurrences (all) [2]: 1
- Pneumothorax, Occurrences (all) [2]: 0
- Post-tussive vomiting, Occurrences (all) [2]: 0
- Protein deficiency, Occurrences (all) [2]: 0
- Pyrexia, Occurrences (all) [2]: 2
- Rash, Occurrences (all) [2]: 3
- Red man syndrome, Occurrences (all) [2]: 0
- Respiratory disorder, Occurrences (all) [2]: 1
- Rhinorrhoea, Occurrences (all) [2]: 1
- Seborrhoeic dermatitis, Occurrences (all) [2]: 1
- Sinusitis, Occurrences (all) [2]: 2
- Stoma site reaction, Occurrences (all) [2]: 1
- Tachypnoea, Occurrences (all) [2]: 0
- Teething, Occurrences (all) [2]: 1
- Thrombocytopenia, Occurrences (all) [2]: 0
- Thrombocytosis, Occurrences (all) [2]: 0
- Tibia fracture, Occurrences (all) [2]: 1
- Transaminases increased, Occurrences (all) [2]: 0
- Tremor, Occurrences (all) [2]: 0
- Upper respiratory tract infection, Occurrences (all) [2]: 6
- Urinary tract infection, Occurrences (all) [2]: 1
- Use of accessory respiratory muscles, Occurrences (all) [2]: 0
- Vascular disorders (Venous thrombosis limb), Occurrences (all) [2]: 2
- Vesicoureteric reflux, Occurrences (all) [2]: 1
- Viral infection, Occurrences (all) [2]: 1
- Vomiting, Occurrences (all) [2]: 5
- Weight decreased, Occurrences (all) [2]: 0
- Subjects with TEAE leading to study discontinuation [3]: one
- Subjects with fatal outcome TEAE [3]: no fatal outcome TEAEs
- Subjects with one or more TEAE [3]: 16 subjects
- Subjects with one or more related TEAE [3]: Ten
- Subjects with one or more serious TEAE [3]: 11 subjects
- Subjects with serious related TEAEs [3]: no subjects
- Subjects with TEAE leading to study discontinuation [4]: one
- Subjects with fatal outcome TEAE [4]: One
- Subjects with one or more TEAE [4]: 10 subjects
- Subjects with one or more related TEAE [4]: Four
- Subjects with one or more serious TEAE [4]: 6 subjects
- Subjects with serious related TEAEs [4]: no subjects
- Respiratory syncytial virus infection, Occurrences (all) (in vivo): 0
- Respiratory syncytial virus infection, Subjects Affected/Exposed (in vivo): 0/10 (0.00%)
- Rhinovirus infection, Occurrences (all) (in vivo): 0
- Rhinovirus infection, Subjects Affected/Exposed (in vivo): 0/10 (0.00%)
- Serious AE Respiratory syncytial virus infection: Occurrences causally related to treatment/all (in vivo): 0/0
- Serious AE Respiratory syncytial virus infection: Subjects Affected/Exposed (in vivo): 0/10 (0.00%)
- Serious AE Rhinovirus infection: Occurrences causally related to treatment/all (in vivo): 0/1
- Serious AE Rhinovirus infection: Subjects Affected/Exposed (in vivo): 1/10 (10.00%)
